Earlier results as cited in patent publication US20260130964A1, “PHARMACEUTICAL COMPOSITION COMPRISING HIGH PAY LOAD GINGER EXTRACT GRANULES AND PROCESS FOR PREPARATION THEREOF” (INDIA GLYCOLS LIMITED, priority 2022, published 2026).

Details: in vivo, po

biological half-life: < 2 hrs
SMILES: CCCCC[C@H](O)CC(=O)CCc1ccc(O)c(OC)c1 [Example 6-gingerol, 6-gingerol]
